According to paper PMC11791976, “CDC20‐Mediated Selective Autophagy Degradation of PBRM1 Affects Immunotherapy for Renal Cell Carcinoma” (Advanced Science, 2024):
Where a SMILES comes first, the peptide text is derived from it. The star is where a group is joined. Cbz = O=C(OCc1ccccc1)*

Test system: PBRM1
Test: Immunoblot of PBRM1 / CDC20 protein level in cells treated with tool compounds
Assay type: cell-based
Details: for CDC20 protein level / PBRM1 protein level: cell cycle block, 24 h, Figure S1J,K
Description: Figure 3 Autophagy selectively degrades PBRM1 via the autophagic receptor p62 in a CDC20‐dependent manner. A) IB analysis of WCL lysates derived from WT or CDC20 knockdown 786‐O and 769‐P cells treated with NH4Cl (20 mM, 24 h) before harvesting. B) IB analysis of WCL lysates derived from 786‐O and 769‐P cells treated with NH4Cl (20 mM) for indicated hours. C) IB analysis of WCL lysates derived from 786‐O and 769‐P cells treated with chloroquine (CQ, 50 µM) for indicated hours. D) IB analysis of WCL lysates derived from 786‐O and 769‐P cells treated with glucose starvation (G.S.) for indicated hours. E) IB analysis of WCL lysates derived from 786‐O and 769‐P cells treated with serum starvation (S.S.) for indicated hours. F) IB analysis of WCL lysates derived from wild‐type (WT) or ATG5 knockdown 786‐O and 769‐P cells treated with serum starvation (S.S.) for indicated hours before harvesting. G) IB analysis of WCL and anti‐HA immunoprecipitates derived from 293T cells transfected with HA‐p62 and V5‐PBRM1. H) IB analysis of WCL and anti‐Flag immunoprecipitates derived from 293T cells transfected with Flag‐p62 and V5‐PBRM1. I) IB analysis of WCL lysates derived from shScr or p62 knockdown 786‐O and 769‐P cells using shRNA. J) IB analysis of WCL lysates derived from NC or p62 knockdown 786‐O cells using siRNA. NC, negative control. K,L) Immunoblotting analysis (K) and quantification (L) of cell lysates of WT and p62 knockdown 786‐O cells treated with cycloheximide (CHX, 20 µg ml^−1) at indicated time points. M) IB analysis of WCL and GST‐pull‐down products derived from 293T cells transfected with GST‐p62 and V5‐PBRM1. 24 h post transfection, cells were treated with serum starvation (S.S.) for 24 h before harvesting the cells. N) IB analysis of WCL and GST‐pull‐down products derived from 293T cells transfected with GST‐p62, HA‐CDC20 and V5‐PBRM1. O) IB analysis of WCL and GST‐pull‐down products derived from WT and CDC20 knockdown 293T cells transfected with GST‐p62 and V5‐PBRM1. P) Schematic representation of truncated constructs of p62 for mapping the interaction domain with PBRM1. Q) IB analysis of WCL and GST‐pull‐down products derived from 293T cells transfected with V5‐PBRM1 and indicated constructs of GST‐p62 plasmids. R) Schematic representation of truncated constructs of p62 for mapping the interaction domain with PBRM1. S) IB analysis of WCL and GST‐pull‐down products derived from 293T cells transfected with V5‐PBRM1 and indicated constructs of GST‐p62 plasmids.
Cells were washed 3 times with ice‐cold phosphate‐buffered saline (PBS). The appropriate RIPA or IP buffer was added, which was mixed with protease and phosphatase inhibitors in advance. After centrifugation, the cell lysate supernatant was collected and checked using the BCA qualification system. The appropriate protein‐loading buffer was added to the protein lysates and denatured in a boiling water bath for 5 min. Each sample contained 30 µg protein, which was loaded onto 8% or 10% SDS‐PAGE gels and transferred to a polyvinylidene fluoride (PVDF) membrane. Then, the PVDF membranes were […] in fresh milk for 1 h at room temperature. Primary antibodies of the targets were added to the PVDF membranes and incubated overnight at 4 °C. The cells were rinsed 3 times with TBST buffer, followed by incubation with peroxidase‐conjugated antibodies at room temperature for 1 h. After washing, the PVDF membranes were analyzed and visualized using an ECL system (Bio‐Rad, Hercules, CA, USA).
Supplementary Figure 1. PBRM1 fluctuates during cell cycle progression. (A) IB analysis of WCL and anti-HA immunoprecipitates derived from 293T cells transfected with HA-CDC20 and Flag-PBRM1. (B) Schematic representation of truncated constructs of CDC20 for mapping the interaction domain with PBRM1. (C) IB analysis of WCL and GST-pull-down products derived from 293T cells transfected with Flag-PBRM1 and indicated constructs of GST-CDC20. Vec, vector. […]

[1] = 786-O and 769-P cells, NH4Cl 20 mM, chloroquine 50 µM, indicated hours

Row | SMILES | protein level of PBRM1 (renca and 786-O cells, MG132 10 μM 12 hours, Figure S5O) | protein level of PBRM1 [1] | CDC20 protein level (786-O and 769-P cells) | PBRM1 protein level (786-O and 769-P cells)
1 | CC(C)C[C@@H](C=O)NC(=O)[C@H](CC(C)C)NC(=O)[C@H](CC(C)C)NC(=O)OCc1ccccc1 [MG132] (Cbz-Leu-Leu-Leu-aldehyde) | enhance the protein level of PBRM1 |  |  | 
2 | Cl.N [NH4Cl, ammonium chloride] |  | increased |  | 
3 | CCN(CC)CCCC(C)Nc1ccnc2cc(Cl)ccc12 (stereo not shown) [chloroquine] |  | upregulated |  | 
4 | COC(=O)Nc1nc2ccc(C(=O)c3cccs3)cc2[nH]1 [nocodazole] |  |  | decreased | upregulated
5 | CC(=O)O[C@H]1C(=O)[C@@]2(C)[C@H]([C@H](OC(=O)c3ccccc3)[C@]3(O)C[C@H](OC(=O)[C@H](O)[C@@H](NC(=O)c4ccccc4)c4ccccc4)C(C)=C1C3(C)C)[C@]1(OC(C)=O)CO[C@@H]1C[C@@H]2O [taxol, paclitaxel] |  |  | decreased | upregulated
